Results on nine molecules are retold here after US5126359A, “Substituted bisazoles and their use as medicaments” (Bayer Aktiengesellschaft, priority 1988, dated 1992).

By MIC is commonly meant the lowest concentration that inhibits growth of the organism.

For one experiment, the system named is Torulopsis glabrata. Put plainly: Antimycotic in vitro activity, serial dilution test (MIC), Torulopsis glabrata. Format: cell-based. Particulars: Nakaseomyces glabratus; Meat extract-dextrose broth; 28° to 37° C.; 24 to 48 hours. The method, then:
(§1) The in vitro tests were carried out in a serial dilution test using inocula of microorganisms of on average 5×10^3 to 10^4 microorganisms/ml of substrate. The nutrient medium used was (b) for yeasts: Meat extract-dextrose broth. The incubation temperature was 28° to 37° C., and the incubation period was 24 to 48 hours with yeasts and 96 hours with Dermatophytes and hyphomycetes.

The next experiment has as its system Candida albicans. Nature of the experiment: Antimycotic in vitro activity, serial dilution test (MIC), Candida albicans. The experiment is classed as cell-based. As to conditions: Meat extract-dextrose broth, 28° to 37° C., 24 to 48 hours. The protocol: as §1
A further experiment deals with Aspergillus fumigatus. Nature of the experiment: Antimycotic in vitro activity, serial dilution test (MIC), Aspergillus fumigatus. Format: cell-based. Particulars: Kimmig's test medium, 28° to 37° C., 96 hours. The method, then:
(§2) The in vitro tests were carried out in a serial dilution test using inocula of microorganisms of on average 5×10^3 to 10^4 microorganisms/ml of substrate. The nutrient medium used was
(§3) (a) for dermatophytes and Hyphomycetes: Kimmig's test medium
(§4) The incubation temperature was 28° to 37° C., and the incubation period was 24 to 48 hours with yeasts and 96 hours with Dermatophytes and hyphomycetes.

For a further experiment, the system named is Trichophyton mentagr. Nature of the experiment: Antimycotic in vitro activity, serial dilution test (MIC), Trichophyton mentagrophytes. Format: cell-based. Particulars: Kimmig's test medium, 28° to 37° C., 96 hours. The protocol: as §2, §3, §4
Experiment [1] has as its system dermatophytes, Hyphomycetes and yeasts. Put plainly: Antimycotic in vitro activity, serial dilution test, overall comparison with the prior art. Particulars: in words. Format: cell-based. The protocol:
as §2, §3
Meat extract-dextrose broth.
as §4

A further experiment has as its system Candida. Nature of the experiment: Antimycotic in vivo activity (oral) in mouse candidosis. Details: species or system mouse (SPF-CF1). Particulars: 10 to 100 mg/kg; for action in mouse candidosis, in words / Action (oral) in mouse candidosis: 6th day p.i.; for Action (oral) in mouse candidosis: one hour before and seven hours after infection; for surviving on the 6th day p.i.: untreated control about 5% survival. The protocol: Mice of the SPF-CF1 type were infected intravenously with 1-2×10^6 exponentially growing Candida cells which are suspended in physiological saline solution. One hour before and seven hours after infection, the animals are treated orally in each case with 10 to 100 mg/kg of body weight of the preparation. Untreated animals died on the 3rd to 6th day post-infection. The survival rate on the 6th day post-infection was about 5% in untreated control animals.

In experiment [2] the test system is Trichophyton mentagrophytes. Nature of the experiment: Antimicrobial in vivo activity (topical) in the experimental guinea-pig trichophytosis model. As to conditions: 1 × daily, 0.1% strength solution, from 3rd day. Also on record: species or system guinea-pig (Pirbright white). The method, then: White guinea-pigs of the Pirbright white strain are infected on the shaven, non-scarified back with a micro- and macroconidia suspension of Trichophyton mentagrophytes. The infected animals were treated topically 1 × daily with a 0.1% strength solution of the preparation according to the invention (in dimethyl sulphoxide: glycerol=1.4) beginning with the 3rd day. In untreated animals, the typical picture of a dermatophytosis with reddening, scaling and hair loss up to total integumental defect of the infection site developed within 12 days p.i.

Values after ≈ are worked out from the molar mass of the structure shown.

In the case of `OC(Cn1cncn1)(Cn1cncn1)c1cccc(Cl)c1` [(A), reference compound], the MIC is greater than 64 µg/mL against Torulopsis glabrata, greater than 64 µg/mL against Candida albicans, greater than 64 µg/mL in the experiment with Aspergillus fumigatus and 32 µg/mL (≈ 105 µM) against Trichophyton mentagr..
For `OC(Cn1cncn1)(Cn1cncn1)c1ccccc1` [(B), reference compound], the MIC was greater than 64 µg/mL against Torulopsis glabrata, 64 µg/mL (≈ 237 µM) with Candida albicans, greater than 64 µg/mL against Aspergillus fumigatus and 64 µg/mL (≈ 237 µM) against Trichophyton mentagr..
As for `OC(Cn1cncn1)(c1ccc(Cl)cc1)C1(n2cnc(Cl)n2)CC1` (stereo not shown) [Example 4, 1-(4-Chlorophenyl)-1-[1-(3-chloro-1,2,4-triazol-1-yl)-cyclopropyl]-2-(1,2,4-triazol-1-yl)-ethan-1-ol], the MIC is greater than 64 µg/mL with Torulopsis glabrata, 8 µg/mL (≈ 21.9 µM) in the experiment with Candida albicans, 32 µg/mL (≈ 87.6 µM) in the experiment on Aspergillus fumigatus and 4 µg/mL (≈ 11 µM) against Trichophyton mentagr.. The “antimycotic action compared with compounds (A) and (B) known from the prior art” value in experiment [1] was “better antimycotic action than the compounds (A) and (B)”. For the same molecule, the “action in mouse candidosis, in words” value in the experiment on Candida was “good to very good action”. Further, the “Action (oral) in mouse candidosis” value in the experiment on Candida is “+++++ (very good action = 90% surviving on the 6th day p.i.)”. The “surviving on the 6th day p.i.” value with Candida is on record as greater than 80%.
Take `OC(Cn1cncn1)(c1ccccc1)C1(n2cnc(Cl)n2)CC1` (stereo not shown) [Example 6, 1-[1-(3-Chloro-1,2,4-triazol-1-yl)-cyclopropyl]-1-phenyl-2-(1,2,4-triazol-1-yl)-ethan-1-ol]: the minimum inhibitory concentration (MIC) against Torulopsis glabrata is greater than 64 µg/mL; against Candida albicans it was 32 µg/mL (≈ 96.7 µM); against Aspergillus fumigatus, 16 µg/mL (≈ 48.4 µM); in the experiment with Trichophyton mentagr., 8 µg/mL (≈ 24.2 µM). In addition, the “antimycotic action compared with compounds (A) and (B) known from the prior art” value in experiment [1] was “better antimycotic action than the compounds (A) and (B)”. Moreover, the “action in guinea-pig trichophytosis, in words” value in experiment [2] is “good action”. Further, in the experiment with Candida, the “action in mouse candidosis, in words” value is “good to very good action”. In addition, the “Action (oral) in mouse candidosis” value in the experiment on Candida is recorded as “+++++ (very good action = 90% surviving on the 6th day p.i.)”. For the same molecule, the “surviving on the 6th day p.i.” value with Candida is on record as greater than 80%.
Consider `OC(Cn1cncn1)(c1ccc(F)cc1)C1(n2cnc(Cl)n2)CC1` (stereo not shown) [Example 7, 1-[1-(3-Chloro-1,2,4-triazol-1-yl)-cyclopropyl]-1-(4-fluorophenyl)-2-(1,2,4-triazol-1-yl)-ethan-1-ol], for which the MIC in the experiment with Torulopsis glabrata is greater than 64 µg/mL; against Candida albicans, 32 µg/mL (≈ 91.8 µM); against Aspergillus fumigatus, 32 µg/mL (≈ 91.8 µM); with Trichophyton mentagr., 8 µg/mL (≈ 22.9 µM). For the same molecule, in experiment [1], the “antimycotic action compared with compounds (A) and (B) known from the prior art” value is “better antimycotic action than the compounds (A) and (B)”. The “action in mouse candidosis, in words” value in the experiment on Candida is “good to very good action”. In addition, in the experiment with Candida, the “Action (oral) in mouse candidosis” value is given as “+++++ (very good action = 90% surviving on the 6th day p.i.)”. Moreover, the “surviving on the 6th day p.i.” value in the experiment with Candida is greater than 80%.
With `Cc1ccc(C(O)(Cn2cncn2)C2(n3cnc(Cl)n3)CC2)cc1` (stereo not shown) [Example 8, 1-[1-(3-Chloro-1,2,4-triazol-1-yl)-cyclopropyl]-1-(4-methylphenyl)-2-(1,2,4-triazol-1-yl)-ethan-1-ol], the MIC against Torulopsis glabrata is greater than 64 µg/mL; against Candida albicans, 16 µg/mL (≈ 46.4 µM); against Aspergillus fumigatus, 16 µg/mL (≈ 46.4 µM); against Trichophyton mentagr., 4 µg/mL (≈ 11.6 µM). The “antimycotic action compared with compounds (A) and (B) known from the prior art” value in experiment [1] is “better antimycotic action than the compounds (A) and (B)”.
In the case of `OC(Cn1cncn1)(c1ccc(-c2ccccc2)cc1)C1(n2cnc(Cl)n2)CC1` (stereo not shown) [Example 9, 1-(4-Biphenyl)-1-[1-(3-chloro-1,2,4-triazol-1-yl)-cyclopropyl]-2-(1,2,4-triazol-1-yl)-ethan-1-ol], the minimal inhibitory concentration (MIC) with Torulopsis glabrata stood at 16 µg/mL (≈ 39.3 µM); in the experiment with Candida albicans, 32 µg/mL (≈ 78.6 µM); against Aspergillus fumigatus, 16 µg/mL (≈ 39.3 µM); with Trichophyton mentagr., 4 µg/mL (≈ 9.83 µM). Further, the “antimycotic action compared with compounds (A) and (B) known from the prior art” value in experiment [1] is “better antimycotic action than the compounds (A) and (B)”.
Turning to `OC(Cn1cncn1)(c1ccc(F)cc1F)C1(n2cnc(Cl)n2)CC1` (stereo not shown) [Example 10, 1-[1-(3-Chloro-1,2,4-triazol-1-yl)-cyclopropyl]-1-(2,4-difluorophenyl)-2-(1,2,4-triazol-1-yl)-ethan-1-ol], the MIC in the experiment on Torulopsis glabrata was greater than 64 µg/mL; with Candida albicans, 32 µg/mL (≈ 87.3 µM); with Aspergillus fumigatus it was 16 µg/mL (≈ 43.6 µM); against Trichophyton mentagr. it was 16 µg/mL (≈ 43.6 µM). For the same molecule, the “antimycotic action compared with compounds (A) and (B) known from the prior art” value in experiment [1] was “better antimycotic action than the compounds (A) and (B)”. In addition, in experiment [2], the “action in guinea-pig trichophytosis, in words” value was “good action”. Further, the “action in mouse candidosis, in words” value in the experiment with Candida was “good to very good action”. Further, the “Action (oral) in mouse candidosis” value with Candida is recorded as “+++++ (very good action = 90% surviving on the 6th day p.i.)”. Besides, in the experiment with Candida, the “surviving on the 6th day p.i.” value is on record as greater than 80%.
As for `OC(Cn1cncn1)(c1ccc(F)c(F)c1)C1(n2cnc(Cl)n2)CC1` (stereo not shown) [Example 11, 1-[1-(3-Chloro-1,2,4-triazol-1-yl)-cyclopropyl]-1-(3,4-difluorophenyl)-2-(1,2,4-triazol-1-yl)-ethan-1-ol], the MIC against Torulopsis glabrata is greater than 64 µg/mL; against Candida albicans, 16 µg/mL (≈ 43.6 µM); with Aspergillus fumigatus, 64 µg/mL (≈ 175 µM); against Trichophyton mentagr., 16 µg/mL (≈ 43.6 µM). Besides, the “antimycotic action compared with compounds (A) and (B) known from the prior art” value in experiment [1] was “better antimycotic action than the compounds (A) and (B)”. For the same molecule, the “action in guinea-pig trichophytosis, in words” value in experiment [2] was “good action”. In the experiment on Candida, the “action in mouse candidosis, in words” value is “good to very good action”. For the same molecule, the “Action (oral) in mouse candidosis” value in the experiment on Candida is reported as “+++++ (very good action = 90% surviving on the 6th day p.i.)”. Further, the “surviving on the 6th day p.i.” value in the experiment with Candida is given as greater than 80%.
